Data reported in paper PMC12298648, “An Evaluation of the Cytotoxicity and Safety Profile of Usnic Acid for a Broad Panel of Human Cancers and Normal Cells with Respect to Its Enantiospecificity” (Molecules, 2025).
In brackets after ≈: the same amount, converted by molar mass. Where two headings read alike, the source gives them in different places.

What was measured:
DU145 cells = settings: DU145, 72 h, cited from earlier work
PC3 = assay: MTT viability assay, PC3 prostate cancer cells; format: cell-based, human; settings: for IC50: Homo sapiens, PC-3; for Cell viability: PC3, 24 h
Text: (§1) Cell lines of different origins were used in the study and grouped as follows: prostate panel (human prostate carcinomas: DU145, derived from metastatic site: brain; grade IV PC3, derived from metastatic site: bone; LNCaP, derived from the metastatic site: lymph node; prostate epithelial, PNT2), colon panel (colorectal adenocarcinomas: HT29, originating from a primary tumor; Duke’s type C DLD-1, with the potential to lymph node metastasis; highly metastatic HCT116; colon epithelial cells CCD 841 CoN), thyroid panel (follicular thyroid carcinoma FTC133, anaplastic thyroid carcinoma 8505C, papillary thyroid carcinoma TPC-1, normal thyroid follicular epithelial Nthy-ori 3–1), breast panel (ER-positive breast adenocarcinoma MCF7, ER-negative breast adenocarcinoma MDA-MB-231, breast epithelial MCF10A), brain panel (neuroblastoma SH-SY5Y, glioblastoma U-87 MG, murine astrocytes C8D1A). All cell lines were purchased from Merck (Darmstadt, Germany).
(§2) Cells were grown under standard conditions (37 °C, 5% CO2) and culture media (DMEM/F12 for PNT2, PC3, FTC133, 8505 C, MDA-MB-231, TPC-1; DMEM Low Glucose for DU145; DMEM High Glucose for HCT116, DLD-1, SH-SY5Y, U87MG, C8D1A; MEM with NEAA for MCF7; MEM for CCD 841 CoN; McCoy’s for HT29; RPMI1640 with sodium pyruvate for LNCaP; DMEM/F12 with 20 ng/mL epidermal growth factor (EGF), 10 μg/mL insulin, 0.5 μg/mL hydrocortisone, 100 ng/mL cholera toxin) for MCF10A), supplemented with 10% fetal bovine serum (FBS) or 5% donor horse serum for MCF10A, and 1% antibiotics solution (10,000 U penicillin and 10 mg streptomycin/mL). The tested substances were prepared as 10 mg/mL stock solutions in DMSO and further diluted in the culture media to the working concentrations. Cells were treated with UA enantiomers at the concentration range of 0–50 µg/mL. The influence of DMSO on cell viability was also examined, with the final concentration […], and no toxic effect was noted.
(§3) The cells were seeded onto 96-well plates at a density of 1.5 × 10^4 cells/well. After 24 h UA enantiomers were added. Cell viability was determined after 24, 48, and 72 h by the MTT assay, as described previously. Doxorubicin was used as a reference cytostatic drug. All analyses were performed in triplicate; cell viability was expressed as % of control, untreated cells (mean ± SD), and IC50 values (concentration at which cell viability is inhibited by 50%), if possible.
(§4) The selectivity index (SI) was calculated, if possible, by dividing the IC50 value obtained for non-cancerous cells line by the IC50 values obtained for appropriate cancer cell line, as described previously. […] The values above 3 indicate good selectivity.

MDA-MB-231 = assay: MTT viability assay, MDA-MB-231 breast cancer cells; format: cell-based, human; settings: for IC50: Homo sapiens; for Cell viability: MDA-MB-231, 24 h
Text: as §1, §2, §3, §4

HT29 cells = settings: HT29, 48 h, cited from earlier work
Nthy ori 3-1 = assay: MTT viability assay, normal thyroid follicular epithelial cells; format: cell-based, human; settings: for IC50: Homo sapiens; for Cell viability: Nthy ori 3-1, 24 h
Text: as §1, §2, §3

CCD 841 CoN = assay: MTT viability assay, normal colon epithelial cells; format: cell-based, human; settings: for Cell viability: CCD 841 CoN, 24 h; for IC50: Homo sapiens, CCD-841CoN
Text: as §1, §2, §3

SH-SY5Y = assay: MTT viability assay, neuroblastoma SH-SY5Y cells; format: cell-based, human; settings: SHSY5Y, 24 h
Text: as §1, §2, §3

DLD-1 = assay: MTT viability assay, DLD-1 colon cancer cells; format: cell-based, human; settings: for Cell viability: DLD-1, 24 h; for IC50: Homo sapiens
Text: as §1, §2, §3

FTC133 = assay: MTT viability assay, FTC133 follicular thyroid carcinoma cells; format: cell-based, human; settings: for Cell viability: FTC-133, 24 h; for IC50: Homo sapiens, FTC-133
Text: as §1, §2, §3, §4

HCT116 = assay: MTT viability assay, HCT116 colon cancer cells; format: cell-based, human; settings: for Cell viability: HCT116, 24 h; for IC50: Homo sapiens, HCT-116
Text: as §1, §2, §3

[1] = recalculated from µM by the authors

In the case of CC(=O)C1=C(O)C=C2Oc3c(C(C)=O)c(O)c(C)c(O)c3[C@]2(C)C1=O [UA(−), (−)-usnic acid], the IC50 (DU145 cells; [1]) is given as 15.8 µg/mL, the IC50 (DU145 cells; read-out: IC50) is given as 45.9 µM and the IC50 (PC3; PC3, 48 h) is given as 37.8 µg/mL (≈ 110 µM). For the same compound, the IC50 (PC3; PC3, 72 h) was 34.8 µg/mL (≈ 101 µM), the “selectivity index (SI)” value (PC3; IC50 PNT2 / IC50 PC3, 48 h) was 0.93 and the “selectivity index (SI)” value (PC3; IC50 PNT2 / IC50 PC3, 72 h) was 0.79. The Cell viability (PC3; 2.5 µg/mL) was 102.94 % of control, the Cell viability (PC3; 5 µg/mL) was 94.68 % of control and the Cell viability (PC3; 10 µg/mL) was 91.59 % of control. For the same compound, the Cell viability (PC3; 20 µg/mL) was 89.10 % of control, the Cell viability (PC3; 30 µg/mL) was 76.52 % of control and the Cell viability (PC3; 40 µg/mL) was 69.15 % of control. The Cell viability (PC3; 50 µg/mL) was 68.91 % of control, the IC50 (MDA-MB-231; MDA-MB-231, 48 h) was 41.4 µg/mL (≈ 120 µM) and the IC50 (MDA-MB-231; MDA-MB-231, 72 h) was 20.2 µg/mL (≈ 58.7 µM). The Cell viability (MDA-MB-231; 2.5 µg/mL) was 96.79 % of control, the Cell viability (MDA-MB-231; 5 µg/mL) was 92.06 % of control and the Cell viability (MDA-MB-231; 10 µg/mL) was 88.24 % of control. For the same compound, the Cell viability (MDA-MB-231; 20 µg/mL) was 85.58 % of control, the Cell viability (MDA-MB-231; 30 µg/mL) was 74.48 % of control and the Cell viability (MDA-MB-231; 40 µg/mL) was 68.12 % of control. For the same compound, the Cell viability (MDA-MB-231; 50 µg/mL) was 70.55 % of control, the IC50 (HT29 cells; [1]) was 18.9 µg/mL and the IC50 (HT29 cells; read-out: IC50) was 55 µM. The IC50 (Nthy ori 3-1; Nthy-ori 3-1, 48 h) was > 50 µg/mL, the IC50 (Nthy ori 3-1; Nthy-ori 3-1, 72 h) was 29.3 µg/mL (≈ 85.1 µM) and the Cell viability (Nthy ori 3-1; 2.5 µg/mL) was 97.23 % of control. For the same compound, the Cell viability (Nthy ori 3-1; 5 µg/mL) was 99.36 % of control, the Cell viability (Nthy ori 3-1; 10 µg/mL) was 94.52 % of control and the Cell viability (Nthy ori 3-1; 20 µg/mL) was 93.76 % of control. For the same compound, the Cell viability (Nthy ori 3-1; 30 µg/mL) was 95.25 % of control, the Cell viability (Nthy ori 3-1; 40 µg/mL) was 96.10 % of control and the Cell viability (Nthy ori 3-1; 50 µg/mL) was 98.58 % of control. For the same compound, the Cell viability (CCD 841 CoN; 2.5 µg/mL) was 98.61 % of control, the Cell viability (CCD 841 CoN; 5 µg/mL) was 98.89 % of control and the Cell viability (CCD 841 CoN; 10 µg/mL) was 96.39 % of control. The Cell viability (CCD 841 CoN; 20 µg/mL) was 99.72 % of control, the Cell viability (CCD 841 CoN; 30 µg/mL) was 96.11 % of control and the Cell viability (CCD 841 CoN; 40 µg/mL) was 96.94 % of control. For the same compound, the Cell viability (CCD 841 CoN; 50 µg/mL) was 93.06 % of control, the IC50 (CCD 841 CoN; 48 h) was > 50 µg/mL and the IC50 (CCD 841 CoN; 72 h) was > 50 µg/mL. The Cell viability (SH-SY5Y; 2.5 µg/mL) was 96.79 % of control, the Cell viability (SH-SY5Y; 5 µg/mL) was 99.17 % of control and the Cell viability (SH-SY5Y; 10 µg/mL) was 98.10 % of control. The Cell viability (SH-SY5Y; 20 µg/mL) was 96.67 % of control, the Cell viability (SH-SY5Y; 30 µg/mL) was 92.62 % of control and the Cell viability (SH-SY5Y; 40 µg/mL) was 98.57 % of control. The Cell viability (SH-SY5Y; 50 µg/mL) was 99.40 % of control, the Cell viability (DLD-1; 2.5 µg/mL) was 100.75 % of control and the Cell viability (DLD-1; 5 µg/mL) was 97.99 % of control. For the same compound, the Cell viability (DLD-1; 10 µg/mL) was 92.05 % of control, the Cell viability (DLD-1; 20 µg/mL) was 81.25 % of control and the Cell viability (DLD-1; 30 µg/mL) was 78.35 % of control. The Cell viability (DLD-1; 40 µg/mL) was 77.75 % of control, the Cell viability (DLD-1; 50 µg/mL) was 77.98 % of control and the IC50 (DLD-1; DLD-1, 48 h) was 44.3 µg/mL (≈ 129 µM). The IC50 (DLD-1; DLD-1, 72 h) was 15.4 µg/mL (≈ 44.7 µM), the Cell viability (FTC133; 2.5 µg/mL) was 108.51 % of control and the Cell viability (FTC133; 5 µg/mL) was 106.14 % of control. The Cell viability (FTC133; 10 µg/mL) was 87.63 % of control, the Cell viability (FTC133; 20 µg/mL) was 89.56 % of control and the Cell viability (FTC133; 30 µg/mL) was 93.33 % of control. For the same compound, the Cell viability (FTC133; 40 µg/mL) was 86.67 % of control, the Cell viability (FTC133; 50 µg/mL) was 83.25 % of control and the IC50 (FTC133; FTC133, 48 h) was > 50 µg/mL. For the same compound, the IC50 (FTC133; FTC133, 72 h) was 35.3 µg/mL (≈ 103 µM), the “selectivity index (SI)” value (FTC133; IC50 Nthy ori 3-1 / IC50 FTC133, 72 h) was 0.83 and the Cell viability (HCT116; 2.5 µg/mL) was 112.65 % of control. The Cell viability (HCT116; 5 µg/mL) was 108.16 % of control, the Cell viability (HCT116; 10 µg/mL) was 96.26 % of control and the Cell viability (HCT116; 20 µg/mL) was 84.97 % of control. The Cell viability (HCT116; 30 µg/mL) was 72.86 % of control, the Cell viability (HCT116; 40 µg/mL) was 71.90 % of control and the Cell viability (HCT116; 50 µg/mL) was 73.33 % of control. For the same compound, the IC50 (HCT116; HCT116, 48 h) was 26.2 µg/mL (≈ 76.1 µM) and the IC50 (HCT116; HCT116, 72 h) was 10.7 µg/mL (≈ 31.1 µM).
